According to PubChem BioAssay (NCI):
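Dose response: 5 concentrations. Exposure: 48 h. Format: 96-well plates. Endpoint: linear interpolation; highest concentration if not reached. Definition used: TGI = concentration required for complete inhibition of growth.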

Tests used:
Test in all cases: DTP human tumour cell line panel, 48 h
UACC-62 melanoma = system: UACC-62 melanoma
NCI-H23 lung = system: NCI-H23 lung
SK-MEL-28 melanoma = system: SK-MEL-28 melanoma
KM12 colon = system: KM12 colon
NCI-H522 lung = system: NCI-H522 lung
786-0 renal = system: 786-0 renal
DMS 114 small cell lung = system: DMS 114 small cell lung
ACHN renal = system: ACHN renal
MOLT-4 leukemia = system: MOLT-4 leukemia
SNB-75 CNS = system: SNB-75 CNS
HOP-62 NSCLC = system: HOP-62 NSCLC
RXF-631 renal = system: RXF-631 renal
COLO 205 colon = system: COLO 205 colon
SW-620 colon = system: SW-620 colon
OVCAR-3 ovarian = system: OVCAR-3 ovarian
SF-295 CNS = system: SF-295 CNS
CAKI-1 renal = system: CAKI-1 renal
HCT-116 colon = system: HCT-116 colon
LOX IMVI melanoma = system: LOX IMVI melanoma
SR leukemia = system: SR leukemia
SNB-78 CNS = system: SNB-78 CNS
A549 NSCLC = system: A549 NSCLC
M19-MEL melanoma = system: M19-MEL melanoma
HT29 colon = system: HT29 colon
TK-10 renal = system: TK-10 renal
SK-MEL-5 melanoma = system: SK-MEL-5 melanoma
IGROV1 ovarian = system: IGROV1 ovarian
SF-268 CNS = system: SF-268 CNS
HL-60(TB) leukemia = system: HL-60(TB) leukemia
CCRF-CEM leukemia = system: CCRF-CEM leukemia
UO-31 renal = system: UO-31 renal
RXF 393 renal = system: RXF 393 renal
DMS 273 small cell lung = system: DMS 273 small cell lung
LXFL 529 NSCLC = system: LXFL 529 NSCLC
HOP-92 NSCLC = system: HOP-92 NSCLC
XF 498 CNS = system: XF 498 CNS
M14 melanoma = system: M14 melanoma
UACC-257 melanoma = system: UACC-257 melanoma
HCC-2998 colon = system: HCC-2998 colon
OVCAR-8 ovarian = system: OVCAR-8 ovarian
MALME-3M melanoma = system: MALME-3M melanoma
OVCAR-5 ovarian = system: OVCAR-5 ovarian
K-562 leukemia = system: K-562 leukemia
SN12C renal = system: SN12C renal
NCI-H460 lung = system: NCI-H460 lung
HOP-18 NSCLC = system: HOP-18 NSCLC
OVCAR-4 ovarian = system: OVCAR-4 ovarian
SF-539 CNS = system: SF-539 CNS
U251 CNS = system: U251 CNS
DLD-1 colon = system: DLD-1 colon
SNB-19 CNS = system: SNB-19 CNS
SK-OV-3 ovarian = system: SK-OV-3 ovarian
EKVX NSCLC = system: EKVX NSCLC
A498 renal = system: A498 renal
KM20L2 colon = system: KM20L2 colon
HCT-15 colon = system: HCT-15 colon
SK-MEL-2 melanoma = system: SK-MEL-2 melanoma
NCI-H226 lung = system: NCI-H226 lung
RPMI-8226 leukemia = system: RPMI-8226 leukemia

COc1ccc2c(c1)CCc1c(C(C)=O)c3ccccc3n1C2
TGI (UACC-62 melanoma): > 100 µM
TGI (NCI-H23 lung): > 100 µM
TGI (SK-MEL-28 melanoma): > 100 µM
TGI (KM12 colon): > 100 µM
TGI (NCI-H522 lung): > 100 µM
TGI (786-0 renal): > 100 µM
TGI (DMS 114 small cell lung): > 100 µM
TGI (ACHN renal): > 100 µM
TGI (MOLT-4 leukemia): > 100 µM
TGI (SNB-75 CNS): 85.1 µM
TGI (HOP-62 NSCLC): 91.3 µM
TGI (RXF-631 renal): > 100 µM
TGI (COLO 205 colon): > 100 µM
TGI (SW-620 colon): > 100 µM
TGI (OVCAR-3 ovarian): > 100 µM
TGI (SF-295 CNS): > 100 µM
TGI (CAKI-1 renal): > 100 µM
TGI (HCT-116 colon): > 100 µM
TGI (LOX IMVI melanoma): > 100 µM
TGI (SR leukemia): > 100 µM
TGI (SNB-78 CNS): > 100 µM
TGI (A549 NSCLC): > 100 µM
TGI (M19-MEL melanoma): > 100 µM
TGI (HT29 colon): > 100 µM
TGI (TK-10 renal): > 100 µM
TGI (SK-MEL-5 melanoma): > 100 µM
TGI (IGROV1 ovarian): > 100 µM
TGI (SF-268 CNS): > 100 µM
TGI (HL-60(TB) leukemia): > 100 µM
TGI (CCRF-CEM leukemia): > 100 µM
TGI (UO-31 renal): > 100 µM
TGI (RXF 393 renal): 75.4 µM
TGI (DMS 273 small cell lung): > 100 µM
TGI (LXFL 529 NSCLC): > 100 µM
TGI (HOP-92 NSCLC): > 100 µM
TGI (XF 498 CNS): 51.2 µM
TGI (M14 melanoma): > 100 µM
TGI (UACC-257 melanoma): > 100 µM
TGI (HCC-2998 colon): > 100 µM
TGI (OVCAR-8 ovarian): > 100 µM
TGI (MALME-3M melanoma): 74.4 µM
TGI (OVCAR-5 ovarian): > 100 µM
TGI (K-562 leukemia): > 100 µM
TGI (SN12C renal): > 100 µM
TGI (NCI-H460 lung): > 100 µM
TGI (HOP-18 NSCLC): > 100 µM
TGI (OVCAR-4 ovarian): > 100 µM
TGI (SF-539 CNS): 62.6 µM
TGI (U251 CNS): > 100 µM
TGI (DLD-1 colon): > 100 µM
TGI (SNB-19 CNS): > 100 µM

CN(C)CCn1cnc2sc3ccccc3c21
TGI (UACC-62 melanoma): > 100 µM
TGI (NCI-H23 lung): > 100 µM
TGI (SK-OV-3 ovarian): > 100 µM
TGI (SK-MEL-28 melanoma): > 100 µM
TGI (KM12 colon): > 100 µM
TGI (NCI-H522 lung): > 100 µM
TGI (786-0 renal): > 100 µM
TGI (DMS 114 small cell lung): > 100 µM
TGI (ACHN renal): > 100 µM
TGI (MOLT-4 leukemia): > 100 µM
TGI (SNB-75 CNS): 86.6 µM
TGI (HOP-62 NSCLC): > 100 µM
TGI (RXF-631 renal): > 100 µM
TGI (COLO 205 colon): > 100 µM
TGI (SW-620 colon): > 100 µM
TGI (EKVX NSCLC): > 100 µM
TGI (OVCAR-3 ovarian): > 100 µM
TGI (SF-295 CNS): > 100 µM
TGI (A498 renal): > 100 µM
TGI (CAKI-1 renal): > 100 µM
TGI (HCT-116 colon): > 100 µM
TGI (KM20L2 colon): > 100 µM
TGI (LOX IMVI melanoma): > 100 µM
TGI (SNB-78 CNS): > 100 µM
TGI (A549 NSCLC): > 100 µM
TGI (M19-MEL melanoma): > 100 µM
TGI (HT29 colon): > 100 µM
TGI (TK-10 renal): > 100 µM
TGI (HCT-15 colon): > 100 µM
TGI (SK-MEL-5 melanoma): > 100 µM
TGI (SK-MEL-2 melanoma): > 100 µM
TGI (IGROV1 ovarian): > 100 µM
TGI (SF-268 CNS): > 100 µM
TGI (CCRF-CEM leukemia): > 100 µM
TGI (RXF 393 renal): > 100 µM
TGI (LXFL 529 NSCLC): > 100 µM
TGI (XF 498 CNS): > 100 µM
TGI (M14 melanoma): > 100 µM
TGI (UACC-257 melanoma): > 100 µM
TGI (HCC-2998 colon): > 100 µM
TGI (OVCAR-8 ovarian): > 100 µM
TGI (MALME-3M melanoma): > 100 µM
TGI (OVCAR-5 ovarian): > 100 µM
TGI (NCI-H226 lung): > 100 µM
TGI (K-562 leukemia): > 100 µM
TGI (SN12C renal): > 100 µM
TGI (NCI-H460 lung): > 100 µM
TGI (HOP-18 NSCLC): > 100 µM
TGI (OVCAR-4 ovarian): > 100 µM
TGI (SF-539 CNS): > 100 µM
TGI (U251 CNS): > 100 µM
TGI (SNB-19 CNS): > 100 µM

COc1ccc(C2C(C#N)=C(O)NC(O)=C2C#N)cc1OC
TGI (SK-OV-3 ovarian): > 100 µM
TGI (SK-MEL-28 melanoma): > 100 µM
TGI (RPMI-8226 leukemia): > 100 µM
TGI (KM12 colon): > 100 µM
TGI (NCI-H522 lung): > 100 µM
TGI (MOLT-4 leukemia): > 100 µM
TGI (SNB-75 CNS): > 100 µM
TGI (HOP-62 NSCLC): > 100 µM
TGI (RXF-631 renal): > 100 µM
TGI (COLO 205 colon): > 100 µM
TGI (SW-620 colon): > 100 µM
TGI (EKVX NSCLC): > 100 µM
TGI (OVCAR-3 ovarian): > 100 µM
TGI (SF-295 CNS): > 100 µM
TGI (A498 renal): > 100 µM
TGI (CAKI-1 renal): > 100 µM
TGI (HCT-116 colon): > 100 µM
TGI (KM20L2 colon): > 100 µM
TGI (SR leukemia): > 100 µM
TGI (SNB-78 CNS): > 100 µM
TGI (A549 NSCLC): > 100 µM
TGI (M19-MEL melanoma): > 100 µM
TGI (HT29 colon): > 100 µM
TGI (HCT-15 colon): > 100 µM
TGI (SK-MEL-5 melanoma): > 100 µM
TGI (SK-MEL-2 melanoma): > 100 µM
TGI (IGROV1 ovarian): > 100 µM
TGI (SF-268 CNS): > 100 µM
TGI (UO-31 renal): > 100 µM
TGI (DMS 273 small cell lung): > 100 µM
TGI (LXFL 529 NSCLC): > 100 µM
TGI (HOP-92 NSCLC): > 100 µM
TGI (XF 498 CNS): > 100 µM
TGI (M14 melanoma): > 100 µM
TGI (HCC-2998 colon): > 100 µM
TGI (OVCAR-8 ovarian): > 100 µM
TGI (MALME-3M melanoma): > 100 µM
TGI (OVCAR-5 ovarian): > 100 µM
TGI (SN12C renal): > 100 µM
TGI (HOP-18 NSCLC): > 100 µM
TGI (SF-539 CNS): > 100 µM
TGI (U251 CNS): > 100 µM
TGI (SNB-19 CNS): > 100 µM
